Where “and” joins values, the source holds several entries; their conditions need not be identical. Identical values can stand only once. Like-named read-outs stand apart in the source and are kept apart here.
How the values were obtained:
P. falciparum Dd2-2D4 = test: P. falciparum asexual blood stage (ABS) growth assay, SYBR Green, 72 h, wild-type parasites; assay type: cell-based, Plasmodium falciparum; settings: for ABS growth dose-response, normalized signal (Replicates 1-3): Dd2-2D4
Method: This assay was performed as previously described[8]. In short, P. falciparum erythrocytic-stage parasites at 1% parasitemia and 1% hematocrit in RPMI + 0.5% Albumax were seeded at 40 μL/well in 384-well plates with test compounds in triplicate, dose-response format with 10 μM dihydroartemisinin as a kill-control and blank (no compound) wells as a growth-control. […] After 72 h, growth was quantified by measuring fluorescence (Molecular Devices SpectraMax iD5) following SYBR Green 1 staining. Data were analyzed in Excel and plotted in PRISM (V. 8.4.3–9.1.0, GraphPad).

[1] = system: halofuginone-induced P. falciparum (elevated proline homeostasis); test: P. falciparum ABS growth assay, SYBR Green, 72 h, halofuginone-induced parasites; assay type: cell-based, Plasmodium falciparum
From the text: Parasites were maintained under standard culture conditions as described previously[56],[57]. […] The P. falciparum Dd2 cell lines used in this study (Dd2-2D4, halofuginone-induced, and HFGR-I) have previously undergone whole genome sequencing in our labs. They were also routinely assayed and EC50 values determined using the ABS growth assay (see below) with a panel of standard antimalarial compounds, including halofuginone which has differential activity for the three Dd2 lines used in these experiments. Data were cross-referenced for consistency with literature reported values and data previously acquired in the lab.
This assay was performed as previously described. In short, P. falciparum erythrocytic-stage parasites at 1% parasitemia and 1% hematocrit in RPMI + 0.5% Albumax were seeded at 40 μL/well in 384-well plates with test compounds in triplicate, dose-response format with 10 μM dihydroartemisinin as a kill-control and blank (no compound) wells as a growth-control. […] After 72 h, growth was quantified by measuring fluorescence (Molecular Devices SpectraMax iD5) following SYBR Green 1 staining. Data were analyzed in Excel and plotted in PRISM (V. 8.4.3–9.1.0, GraphPad).

PfcProRS = target: T1, PfcProRS (Plasmodium falciparum, UniProt Q8I5R7); assay type: binding; settings: single replicates
T1 construct: made in house; host or cells: E. coli SoluBL-21

HsProRS = HsProRS (Homo sapiens, UniProt P07814); test: TR-FRET ligand displacement assay with tracer MAT379 (CoraFluor-1-Halo and anti-His6 antibody formats); assay type: binding; parameters: made in house; host or cells: E. coli SoluBL-21; settings: for TR-FRET dose-response, normalized signal (SI Fig 11): individual replicates
HsProRS, sequence (P07814 996-1512): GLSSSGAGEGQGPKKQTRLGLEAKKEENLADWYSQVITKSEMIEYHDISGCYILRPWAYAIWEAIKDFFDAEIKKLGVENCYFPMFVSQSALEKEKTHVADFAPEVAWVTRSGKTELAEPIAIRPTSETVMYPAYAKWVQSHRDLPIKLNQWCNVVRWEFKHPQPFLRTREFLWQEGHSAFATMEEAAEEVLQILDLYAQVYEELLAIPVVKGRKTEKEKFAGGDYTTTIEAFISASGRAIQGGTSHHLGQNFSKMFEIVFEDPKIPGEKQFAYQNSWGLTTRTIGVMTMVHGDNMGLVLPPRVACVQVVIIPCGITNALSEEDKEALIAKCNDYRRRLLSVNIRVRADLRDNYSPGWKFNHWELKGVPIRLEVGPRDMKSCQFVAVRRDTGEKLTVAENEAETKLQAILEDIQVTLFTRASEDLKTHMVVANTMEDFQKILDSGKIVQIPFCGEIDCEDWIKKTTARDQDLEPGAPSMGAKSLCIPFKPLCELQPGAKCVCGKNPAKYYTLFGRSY

T1 sequence (Q8I5R7 249-746): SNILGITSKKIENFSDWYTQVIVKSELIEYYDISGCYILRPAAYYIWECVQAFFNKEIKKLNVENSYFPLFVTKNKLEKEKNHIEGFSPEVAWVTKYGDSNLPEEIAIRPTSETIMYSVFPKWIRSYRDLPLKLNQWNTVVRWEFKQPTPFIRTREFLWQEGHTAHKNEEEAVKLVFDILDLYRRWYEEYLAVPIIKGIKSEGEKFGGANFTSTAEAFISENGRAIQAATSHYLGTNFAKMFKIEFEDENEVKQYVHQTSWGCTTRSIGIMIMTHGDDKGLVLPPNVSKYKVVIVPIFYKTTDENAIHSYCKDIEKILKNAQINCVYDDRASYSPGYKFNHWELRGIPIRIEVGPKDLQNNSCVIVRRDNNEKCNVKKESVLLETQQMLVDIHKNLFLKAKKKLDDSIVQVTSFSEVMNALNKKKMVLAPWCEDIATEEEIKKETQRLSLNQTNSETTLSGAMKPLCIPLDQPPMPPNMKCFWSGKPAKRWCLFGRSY

O=C(NC1Cc2ccccc2C1)c1nccnc1NC(=O)C1CCC1 [compound 20]
ABS growth dose-response, normalized signal (Replicates 1-3) (P. falciparum Dd2-2D4; Log[inhibitor] (M) -5.000): 1 | ABS growth dose-response, normalized signal (Replicates 1-3) (P. falciparum Dd2-2D4; Log[inhibitor] (M) -5.301): 7 | EC50 (P. falciparum Dd2-2D4; Plasmodium falciparum, DD2, SI Fig 16b, values on -log scale, read-out: ABS - Dd2-2D4 (converted)): 3740 nM | dose-response value, Replicates 1-3 (SI Fig 2e) ([1]; Log[inhibitor] (M) -8.699): 102 | dose-response value, Replicates 1-3 (SI Fig 2e) ([1]; Log[inhibitor] (M) -9.000): 101 | dose-response signal (normalized), SI Fig 8 (PfcProRS; Log[inhibitor] (M) -5.000): -3.34E-02 and -2.16E-02 and 4.43E-02 | dose-response signal (normalized), SI Fig 8 (PfcProRS; Log[inhibitor] (M) -5.301): 9.72E-02 and 2.14E-03 and 9.57E-02 | dose-response signal (normalized), SI Fig 8 (PfcProRS; Log[inhibitor] (M) -5.601): 1.29E-01 and 1.68E-01 and 1.72E-01 | dose-response signal (normalized), SI Fig 8 (PfcProRS; Log[inhibitor] (M) -5.904): 2.39E-01 and 2.05E-01 and 1.23E-01 | dose-response signal (normalized), SI Fig 8 (PfcProRS; Log[inhibitor] (M) -6.208): 3.45E-01 and 2.90E-01 and 4.22E-01 | dose-response signal (normalized), SI Fig 8 (PfcProRS; Log[inhibitor] (M) -6.509): 6.21E-01 and 6.16E-01 and 6.02E-01 | dose-response signal (normalized), SI Fig 8 (PfcProRS; Log[inhibitor] (M) -6.796): 8.63E-01 and 8.36E-01 and 8.81E-01 | dose-response signal (normalized), SI Fig 8 (PfcProRS; Log[inhibitor] (M) -7.108): 1.04E+00 and 9.78E-01 and 9.41E-01 | dose-response signal (normalized), SI Fig 8 (PfcProRS; Log[inhibitor] (M) -7.409): 1.10E+00 and 1.00E+00 and 1.03E+00 | dose-response signal (normalized), SI Fig 8 (PfcProRS; Log[inhibitor] (M) -7.710): 1.05E+00 and 1.02E+00 (2×) | dose-response signal (normalized), SI Fig 8 (PfcProRS; Log[inhibitor] (M) -8.000): 1.14E+00 and 1.06E+00 and 1.15E+00 | dose-response signal (normalized), SI Fig 8 (PfcProRS; Log[inhibitor] (M) -8.301): 1.07E+00 and 1.03E+00 and 9.53E-01 | dose-response signal (normalized), SI Fig 8 (PfcProRS; Log[inhibitor] (M) -8.602): 1.04E+00 and 1.07E+00 and 9.70E-01 | dose-response signal (normalized), SI Fig 8 (PfcProRS; Log[inhibitor] (M) -9.000): 1.05E+00 and 1.02E+00 and 1.08E+00 | dose-response signal (normalized), SI Fig 8 (PfcProRS; Log[inhibitor] (M) -9.301): 1.08E+00 and 9.05E-01 and 9.37E-01 | Kd (HsProRS; HsProRS (KD [nM]) mean, no added proline/ATP (-)): 738 nM | Kd (HsProRS; HsProRS - best Kd, SI Fig 16a, values on -log scale): 13.2 nM | normalized TR-FRET ligand displacement signal, dose-response replicates (SI Fig 6) (HsProRS; Log[inhibitor] (M) -5.000): 1.86E-01 and 1.74E-01 and 2.39E-01 | TR-FRET dose-response, normalized signal (SI Fig 11) (HsProRS; Log[inhibitor] (M) -5.000): 1.04E-01 and 5.16E-02 and 1.08E-01 | normalized TR-FRET ligand displacement signal, dose-response replicates (SI Fig 6) (HsProRS; Log[inhibitor] (M) -5.301): 4.97E-01 and 4.61E-01 and 4.31E-01 | TR-FRET dose-response, normalized signal (SI Fig 11) (HsProRS; Log[inhibitor] (M) -5.301): 1.41E-01 and 1.42E-01 and 1.77E-01 | normalized TR-FRET ligand displacement signal, dose-response replicates (SI Fig 6) (HsProRS; Log[inhibitor] (M) -5.601): 6.11E-01 and 7.58E-01 and 7.79E-01 | TR-FRET dose-response, normalized signal (SI Fig 11) (HsProRS; Log[inhibitor] (M) -5.601): 3.04E-01 and 2.78E-01 and 2.50E-01 | normalized TR-FRET ligand displacement signal, dose-response replicates (SI Fig 6) (HsProRS; Log[inhibitor] (M) -5.904): 8.89E-01 and 8.92E-01 and 8.45E-01 | TR-FRET dose-response, normalized signal (SI Fig 11) (HsProRS; Log[inhibitor] (M) -5.904): 4.25E-01 and 3.97E-01 and 4.79E-01 | normalized TR-FRET ligand displacement signal, dose-response replicates (SI Fig 6) (HsProRS; Log[inhibitor] (M) -6.208): 9.16E-01 and 8.68E-01 and 9.52E-01 | TR-FRET dose-response, normalized signal (SI Fig 11) (HsProRS; Log[inhibitor] (M) -6.208): 6.09E-01 and 5.97E-01 and 5.95E-01 | normalized TR-FRET ligand displacement signal, dose-response replicates (SI Fig 6) (HsProRS; Log[inhibitor] (M) -6.509): 1.03E+00 and 8.94E-01 and 8.53E-01 | TR-FRET dose-response, normalized signal (SI Fig 11) (HsProRS; Log[inhibitor] (M) -6.509): 6.97E-01 and 7.43E-01 and 6.91E-01 | normalized TR-FRET ligand displacement signal, dose-response replicates (SI Fig 6) (HsProRS; Log[inhibitor] (M) -6.796): 1.03E+00 (2×) and 1.11E+00 | TR-FRET dose-response, normalized signal (SI Fig 11) (HsProRS; Log[inhibitor] (M) -6.796): 8.43E-01 and 8.17E-01 and 8.38E-01 | normalized TR-FRET ligand displacement signal, dose-response replicates (SI Fig 6) (HsProRS; Log[inhibitor] (M) -7.108): 9.80E-01 and 1.08E+00 and 1.02E+00 | TR-FRET dose-response, normalized signal (SI Fig 11) (HsProRS; Log[inhibitor] (M) -7.108): 8.72E-01 and 8.51E-01 and 8.01E-01 | normalized TR-FRET ligand displacement signal, dose-response replicates (SI Fig 6) (HsProRS; Log[inhibitor] (M) -7.409): 9.83E-01 and 1.12E+00 and 9.82E-01 | TR-FRET dose-response, normalized signal (SI Fig 11) (HsProRS; Log[inhibitor] (M) -7.409): 9.24E-01 and 8.62E-01 and 9.39E-01 | normalized TR-FRET ligand displacement signal, dose-response replicates (SI Fig 6) (HsProRS; Log[inhibitor] (M) -7.710): 9.31E-01 and 9.49E-01 and 8.80E-01 | TR-FRET dose-response, normalized signal (SI Fig 11) (HsProRS; Log[inhibitor] (M) -7.710): 9.14E-01 and 9.13E-01 and 9.09E-01 | normalized TR-FRET ligand displacement signal, dose-response replicates (SI Fig 6) (HsProRS; Log[inhibitor] (M) -8.000): 1.05E+00 and 9.80E-01 and 9.83E-01 | TR-FRET dose-response, normalized signal (SI Fig 11) (HsProRS; Log[inhibitor] (M) -8.000): 9.16E-01 and 9.29E-01 and 9.47E-01 | normalized TR-FRET ligand displacement signal, dose-response replicates (SI Fig 6) (HsProRS; Log[inhibitor] (M) -8.301): 9.29E-01 and 1.08E+00 and 8.52E-01 | TR-FRET dose-response, normalized signal (SI Fig 11) (HsProRS; Log[inhibitor] (M) -8.301): 9.16E-01 and 9.69E-01 and 9.32E-01 | normalized TR-FRET ligand displacement signal, dose-response replicates (SI Fig 6) (HsProRS; Log[inhibitor] (M) -8.602): 9.34E-01 and 1.03E+00 and 1.00E+00 | TR-FRET dose-response, normalized signal (SI Fig 11) (HsProRS; Log[inhibitor] (M) -8.602): 9.06E-01 and 9.54E-01 and 9.32E-01 | normalized TR-FRET ligand displacement signal, dose-response replicates (SI Fig 6) (HsProRS; Log[inhibitor] (M) -9.000): 1.01E+00 and 9.37E-01 and 8.87E-01 | TR-FRET dose-response, normalized signal (SI Fig 11) (HsProRS; Log[inhibitor] (M) -9.000): 9.11E-01 and 9.90E-01 and 9.12E-01 | normalized TR-FRET ligand displacement signal, dose-response replicates (SI Fig 6) (HsProRS; Log[inhibitor] (M) -9.301): 9.68E-01 and 9.96E-01 and 9.12E-01 | TR-FRET dose-response, normalized signal (SI Fig 11) (HsProRS; Log[inhibitor] (M) -9.301): 9.37E-01 and 9.39E-01 and 8.38E-01
